Results from patent publication US4363805A, “Aminodesoxy-1.4;3.6-dianhydrohexitol nitrates and pharmaceutical composition” (Firma Willmar Schwabe, priority 1980, dated 1982).

What was measured:
narcotised guinea pigs = assay: Blood pressure experiments on guinea pigs, i.v.; type: in vivo, guinea pig; conditions: for blood pressure before: before administration
[1] = Acute toxicity, intravenous, mice; type: in vivo; conditions: mouse, in vivo; intravenous, within 24 hours; read-out: Evaluated LD50-range
female NMRI-albino mice = assay: Acute toxicity, intravenous, mice; type: in vivo; conditions: within 24 hours
[2] = tested on: isolated guinea pig hearts; assay: Experiments on Langendorff hearts (coronary flowthrough, inotropism, frequency); conditions: Cavia porcellus, read-out: flowthrough, percentage change with regard to the initial value
Experimental: After reaching the stationary state in the 30th minute, the hearts were each perfused with 50 ml. tyrode solution with a content of test substance of, in each case, 25 μg./ml. Each test substance was tested on 3-6 hearts.
In each case, there was measured the inotropism, the flowthrough and the frequency, whereby the values given in Table I are average values of the percentage changes in comparison with the initial values.

mongrel cats [3] = assay: Inotropic and heart-circulatory effectiveness on narcotised cats, intravenous; type: in vivo, cat; conditions: 6 animals; for blood pressure before / dp/dt (inotropism) before / heart frequency before: before administration
mongrel cats [4] = assay: Inotropic and heart-circulatory effectiveness on narcotised cats, intraduodenal; type: in vivo, cat; conditions: 5 mg/kg intraduodenal

## N[C@@H]1CO[C@H]2[C@@H]1OC[C@@H]2O[N+](=O)[O-] [2 b]
Narcotised guinea pigs; 0.25 mg/kg i.v.
  blood pressure after: 50.25 ± 8.19 mm.Hg
  blood pressure Δ: -5.75 mm.Hg
  blood pressure before: 56.00 ± 7.91 mm.Hg
Narcotised guinea pigs; 1.00 mg/kg i.v.
  blood pressure after: 41.50 ± 4.66 mm.Hg
  blood pressure Δ: -14.25 mm.Hg
Narcotised guinea pigs; 2.50 mg/kg i.v.
  blood pressure after: 31.75 ± 3.09 mm.Hg
  blood pressure Δ: -19.50 mm.Hg
[1]
  LD50 at 24 h: > 200 mg/kg
Female NMRI-albino mice; 200 mg/kg i.v.
  Frequency of death: 0/3
[2]
  activation at 25 µg/mL: 25.9%

## O=[N+]([O-])O[C@H]1CO[C@H]2[C@@H]1OC[C@@H]2N1CCCC1 [14 b]
Narcotised guinea pigs; 0.25 mg/kg i.v.
  blood pressure after: 65.75 ± 0.75 mm.Hg
  blood pressure Δ: -5.50 mm.Hg
  blood pressure before: 71.25 ± 0.63 mm.Hg
Narcotised guinea pigs; 1.00 mg/kg i.v.
  blood pressure after: 56.25 ± 2.17 mm.Hg
  blood pressure Δ: -14.00 mm.Hg
Narcotised guinea pigs; 2.50 mg/kg i.v.
  blood pressure after: 49.25 ± 3.94 mm.Hg
  blood pressure Δ: -18.50 mm.Hg
[1]
  LD50 at 24 h: ≥ 200 mg/kg
Female NMRI-albino mice; 200 mg/kg i.v.
  Frequency of death: 1/3
[2]
  activation at 25 µg/mL: 25.4%

## O=[N+]([O-])O[C@H]1CO[C@H]2[C@@H]1OC[C@@H]2N1CCCCC1 [15 b]
Narcotised guinea pigs; 0.25 mg/kg i.v.
  blood pressure after: 63.00 ± 1.83 mm.Hg
  blood pressure Δ: -9.00 mm.Hg
  blood pressure before: 72.00 ± 2.12 mm.Hg
Narcotised guinea pigs; 1.00 mg/kg i.v.
  blood pressure after: 53.50 ± 1.71 mm.Hg
  blood pressure Δ: -17.75 mm.Hg
Narcotised guinea pigs; 2.50 mg/kg i.v.
  blood pressure after: 49.00 ± 2.48 mm.Hg
  blood pressure Δ: -23.00 mm.Hg
[1]
  LD50 at 24 h: 50 to 100 mg/kg
Female NMRI-albino mice; 50 mg/kg i.v.
  Frequency of death: 0/3
Female NMRI-albino mice; 100 mg/kg i.v.
  Frequency of death: 2/3
Female NMRI-albino mice; 200 mg/kg i.v.
  Frequency of death: 6/6
[2]
  activation at 25 µg/mL: 34%

## O=[N+]([O-])O[C@H]1CO[C@H]2[C@@H]1OC[C@@H]2N1CCOCC1 [16 b]
Narcotised guinea pigs; 0.25 mg/kg i.v.
  blood pressure after: 59.50 ± 5.63 mm.Hg
  blood pressure Δ: -9.25 mm.Hg
  blood pressure before: 68.75 ± 3.07 mm.Hg
Narcotised guinea pigs; 1.00 mg/kg i.v.
  blood pressure after: 48.25 ± 4.80 mm.Hg
  blood pressure Δ: -19.75 mm.Hg
Narcotised guinea pigs; 2.50 mg/kg i.v.
  blood pressure after: 43.25 ± 4.91 mm.Hg
  blood pressure Δ: -23.50 mm.Hg
[1]
  LD50 at 24 h: > 200 mg/kg
Female NMRI-albino mice; 200 mg/kg i.v.
  Frequency of death: 0/3
[2]
  activation at 25 µg/mL: 14.7%

## CN1CCN([C@H]2CO[C@H]3[C@@H]2OC[C@@H]3O[N+](=O)[O-])CC1 [17 b]
Narcotised guinea pigs; 0.25 mg/kg i.v.
  blood pressure after: 59.00 ± 2.27 mm.Hg
  blood pressure Δ: -4.50 mm.Hg
  blood pressure before: 63.50 ± 3.77 mm.Hg
Narcotised guinea pigs; 1.00 mg/kg i.v.
  blood pressure after: 46.25 ± 3.07 mm.Hg
  blood pressure Δ: -17.75 mm.Hg
Narcotised guinea pigs; 2.50 mg/kg i.v.
  blood pressure after: 38.25 ± 4.55 mm.Hg
  blood pressure Δ: -23.50 mm.Hg
[1]
  LD50 at 24 h: > 200 mg/kg
Female NMRI-albino mice; 200 mg/kg i.v.
  Frequency of death: 0/3
[2]
  activation at 25 µg/mL: 25.1%

## O=[N+]([O-])O[C@H]1CO[C@H]2[C@@H]1OC[C@@H]2NCCCc1ccccc1 [Example 28, 5-(3-Phenylpropylamino)-5-desoxy-1.4;3.6-dianhydro-L-iditol 2-nitrate]
Mongrel cats [3]; 0.25 mg/kg i.v.
  blood pressure before: 101.3 mm.Hg
  dp/dt (inotropism) before: 7667 mm.Hg/sec
  heart frequency before: 225.0 min⁻¹
  blood pressure WD: 3.1 min
  blood pressure after: 81.8 mm.Hg
  blood pressure Δ: -19.5 mm.Hg
  dp/dt (inotropism) after: 7400 mm.Hg/sec
  dp/dt (inotropism) Δ: -267 mm.Hg/sec
  dp/dt WD: 2.7 min
  heart frequency after: 223.3 min⁻¹
  heart frequency Δ: -1.7 min⁻¹
Mongrel cats [3]; 0.50 mg/kg i.v.
  blood pressure WD: 5.8 min
  blood pressure after: 79.0 mm.Hg
  blood pressure Δ: -25.9 mm.Hg
  dp/dt (inotropism) after: 6567 mm.Hg/sec
  dp/dt (inotropism) Δ: -1000 mm.Hg/sec
  dp/dt WD: 10.7 min
  heart frequency after: 226.3 min⁻¹
  heart frequency Δ: -1.7 min⁻¹
Mongrel cats [3]; 1.00 mg/kg i.v.
  blood pressure WD: 12.2 min
  blood pressure after: 70.0 mm.Hg
  blood pressure Δ: -39.7 mm.Hg
  dp/dt (inotropism) after: 5533 mm.Hg/sec
  dp/dt (inotropism) Δ: -1534 mm.Hg/sec
  dp/dt WD: 23.0 min
  heart frequency after: 227.0 min⁻¹
  heart frequency Δ: -1.0 min⁻¹
Mongrel cats [3]; 2.50 mg/kg i.v.
  blood pressure WD: > 10 min
  blood pressure after: 53.2 mm.Hg
  blood pressure Δ: -50.3 mm.Hg
  dp/dt (inotropism) after: 3600 mm.Hg/sec
  dp/dt (inotropism) Δ: -3067 mm.Hg/sec
  dp/dt WD: > 10 min
  heart frequency after: 206.3 min⁻¹
  heart frequency Δ: -22.0 min⁻¹
[1]
  LD50 at 24 h: 50 to 100 mg/kg
Female NMRI-albino mice; 50 mg/kg i.v.
  Frequency of death: 0/10
Female NMRI-albino mice; 100 mg/kg i.v.
  Frequency of death: 5/6
Female NMRI-albino mice; 200 mg/kg i.v.
  Frequency of death: 3/3
[2]
  activation at 25 µg/mL: 68.1%

## Cc1cccc(OCC(O)CN[C@H]2CO[C@H]3[C@@H]2OC[C@@H]3O[N+](=O)[O-])c1 (stereo partly drawn) [Example 51, 5-[2-Hydroxy-3-(3-tolyloxy)-propylamino]-5-desoxy-1.4;3.6-dianhydro-L-iditol 2-nitrate]
Narcotised guinea pigs; 0.25 mg/kg i.v.
  blood pressure after: 63.00 ± 2.35 mm.Hg
  blood pressure Δ: -3.75 mm.Hg
  blood pressure before: 66.75 ± 2.49 mm.Hg
Narcotised guinea pigs; 1.00 mg/kg i.v.
  blood pressure after: 55.75 ± 2.36 mm.Hg
  blood pressure Δ: -10.25 mm.Hg
Narcotised guinea pigs; 2.50 mg/kg i.v.
  blood pressure after: 42.25 ± 1.32 mm.Hg
  blood pressure Δ: -23.50 mm.Hg
[1]
  LD50 at 24 h: 50 to 100 mg/kg
Female NMRI-albino mice; 50 mg/kg i.v.
  Frequency of death: 0/3
Female NMRI-albino mice; 100 mg/kg i.v.
  Frequency of death: 3/3
Female NMRI-albino mice; 200 mg/kg i.v.
  Frequency of death: 6/6
[2]
  activation at 25 µg/mL: 92.4%

## O=[N+]([O-])O[C@H]1CO[C@H]2[C@@H]1OC[C@@H]2NCC(O)COc1cccc(C(F)(F)F)c1 (stereo partly drawn) [Example 52, 5-[2-Hydroxy-3-(3-trifluoromethylphenoxy)-propylamino]-5-desoxy-1.4;3.6-dianhydro-L-iditol 2-nitrate]
Narcotised guinea pigs; 0.25 mg/kg i.v.
  blood pressure after: 60.50 ± 1.32 mm.Hg
  blood pressure Δ: -5.00 mm.Hg
  blood pressure before: 65.50 ± 1.50 mm.Hg
Narcotised guinea pigs; 1.00 mg/kg i.v.
  blood pressure after: 49.25 ± 4.37 mm.Hg
  blood pressure Δ: -11.75 mm.Hg
Narcotised guinea pigs; 2.50 mg/kg i.v.
  blood pressure after: 39.00 ± 4.38 mm.Hg
  blood pressure Δ: -17.75 mm.Hg
Mongrel cats [3]; 0.25 mg/kg i.v.
  blood pressure before: 91.7 mm.Hg
  dp/dt (inotropism) before: 6150 mm.Hg/sec
  heart frequency before: 216.7 min⁻¹
  blood pressure WD: 5.6 min
  blood pressure after: 77.2 mm.Hg
  blood pressure Δ: -14.5 mm.Hg
  dp/dt (inotropism) after: 5517 mm.Hg/sec
  dp/dt (inotropism) Δ: -633 mm.Hg/sec
  dp/dt WD: 4.2 min
  heart frequency after: 216.7 min⁻¹
  heart frequency Δ: 0 min⁻¹
Mongrel cats [3]; 0.50 mg/kg i.v.
  blood pressure WD: 11.7 min
  blood pressure after: 74.8 mm.Hg
  blood pressure Δ: -19.9 mm.Hg
  dp/dt (inotropism) after: 5133 mm.Hg/sec
  dp/dt (inotropism) Δ: -850 mm.Hg/sec
  dp/dt WD: 10.5 min
  heart frequency after: 217.0 min⁻¹
  heart frequency Δ: 0 min⁻¹
Mongrel cats [3]; 1.00 mg/kg i.v.
  blood pressure WD: 14.7 min
  blood pressure after: 69.2 mm.Hg
  blood pressure Δ: -26.5 mm.Hg
  dp/dt (inotropism) after: 4250 mm.Hg/sec
  dp/dt (inotropism) Δ: -1333 mm.Hg/sec
  dp/dt WD: 15.3 min
  heart frequency after: 217.3 min⁻¹
  heart frequency Δ: -1.0 min⁻¹
Mongrel cats [3]; 2.50 mg/kg i.v.
  blood pressure WD: > 10 min
  blood pressure after: 60.5 mm.Hg
  blood pressure Δ: -34.5 mm.Hg
  dp/dt (inotropism) after: 2733 mm.Hg/sec
  dp/dt (inotropism) Δ: -2500 mm.Hg/sec
  dp/dt WD: > 10 min
  heart frequency after: 204.0 min⁻¹
  heart frequency Δ: -14.3 min⁻¹
[1]
  LD50 at 24 h: 100 to 200 mg/kg
Female NMRI-albino mice; 100 mg/kg i.v.
  Frequency of death: 1/3
Female NMRI-albino mice; 200 mg/kg i.v.
  Frequency of death: 6/6
Mongrel cats [4]; 0 min after admin.
  blood pressure: 113.8 ± 5.8 mm.Hg
  dp/dt (inotropism): 6540 ± 631 mm.Hg/sec
  heart frequency: 209.6 ± 15.7 min⁻¹
Mongrel cats [4]; 10 min after admin.
  blood pressure: 100.4 mm.Hg
  blood pressure Δ: -13.4 mm.Hg
  dp/dt (inotropism): 6200 ± 374 mm.Hg/sec
  dp/dt (inotropism) Δ: -340 mm.Hg/sec
  heart frequency: 212.4 ± 13.8 min⁻¹
Mongrel cats [4]; 30 min after admin.
  blood pressure: 95.6 ± 9.9 mm.Hg
  blood pressure Δ: -18.2 mm.Hg
  dp/dt (inotropism): 6120 ± 270 mm.Hg/sec
  dp/dt (inotropism) Δ: -440 mm.Hg/sec
  heart frequency: 212.8 ± 13.1 min⁻¹
Mongrel cats [4]; 60 min after admin.
  blood pressure: 95.8 ± 8.0 mm.Hg
  blood pressure Δ: -18.0 mm.Hg
  dp/dt (inotropism): 5480 ± 314 mm.Hg/sec
  dp/dt (inotropism) Δ: -1060 mm.Hg/sec
  heart frequency: 216.0 ± 12.3 min⁻¹
Mongrel cats [4]; 120 min after admin.
  blood pressure: 98.4 ± 9.0 mm.Hg
  blood pressure Δ: -15.4 mm.Hg
  dp/dt (inotropism): 5460 ± 768 mm.Hg/sec
  dp/dt (inotropism) Δ: -1080 mm.Hg/sec
  heart frequency: 214.4 ± 11.6 min⁻¹
[2]
  activation at 25 µg/mL: 214%
